From patent US20220136068A1, “METHODS OF DETECTING AND TREATING VENETOCLAX-RESISTANT ACUTE MYELOID LEUKEMIA” (The Regents of the University of Colorado, A Body Corporate, priority 2019, published 2022)

What was measured:
prim-AML ROS-low LSCs = assay: In vitro viability of sorted ROS-low LSCs from primitive AML; assay type: cell-based, human; conditions: in vitro treatment
Description: (§1) FIG. 2 is a series of charts showing viability of sorted ROSlow LSCs from mono-AML (n=5) and prim-AML (n=7) after 24 hours in vitro treatment with venetoclax alone or in combination with a fixed dose of 1.5 μM azacitidine. Each data point was expressed as mean±SD of technical triplicates. All viability data were normalized to untreated control.
(§2) To understand if the lack of response by monocytic AML to VEN+AZA is driven by intrinsic mechanisms, VEN+AZA sensitivity was directly evaluated in vitro, where protection from extrinsic factors such as the microenvironment is minimal. For these experiments, a second cohort of AML specimens with sufficient material to allow for more robust in vitro experimentation was used (herein referred to as Research Cohort 2). Using the surface expression profile of CD117, CD11b, CD68 and CD64, the primitive or monocytic compartment was isolated for analysis (herein referred to as prim-AML or mono-AML, respectively). Prim-AML has the phenotype of CD117+/CD11b−/CD68−/CD64− and mono-AML is predominantly CD117−/CD11b+/CD68+/CD64+. The in vitro drug sensitivity of these populations is shown in FIG. 2 and closely correlates with relative responses observed for the Clinical Cohort.
(§3) The relative sensitivity of LSCs derived from primitive versus monocytic AML specimens was analyzed. […]

mono-AML ROS-low LSCs = assay: In vitro viability / cell death of sorted ROS-low LSCs from monocytic AML; assay type: cell-based, human; conditions: 24 hours in vitro treatment; FIG. 2, FIG. 3
Description: as §1
FIG. 3 is a series of bar graphs viability of three mono-AMLs from the Research Cohort 2 after 24 hours in vitro treatment with various single or combinations drugs.
as §2, with “The in vitro drug sensitivity of these populations is shown in FIG. 2 and closely correlates with relative responses observed for the Clinical Cohort.” left out
as §3

Row | SMILES | sensitivity/resistance (viability) of prim-AML ROS-low LSCs (prim-AML ROS-low LSCs) | sensitivity/resistance (viability) of mono-AML ROS-low LSCs (mono-AML ROS-low LSCs)
1 | Nc1ncn([C@@H]2O[C@H](CO)[C@@H](O)[C@H]2O)c(=O)n1 [AZA, azacitidine] | sensitive | 
2 | COCCn1c2c([n+](Cc3cnccn3)c1C)C(=O)c1ccccc1C2=O [YM155] | highly resistant | sensitive
